PMC3397428 (Bioorganic & medicinal chemistry, 2012)
Entries after “also recorded” stand apart in the source; their conditions may differ.

Tests used:
PfDHODH = target: T1, PfDHODH (Plasmodium falciparum, UniProt Q08210); experiment: DHODH inhibition, Plasmodium falciparum; format: biochemical
T1 sequence (Q08210 24-569): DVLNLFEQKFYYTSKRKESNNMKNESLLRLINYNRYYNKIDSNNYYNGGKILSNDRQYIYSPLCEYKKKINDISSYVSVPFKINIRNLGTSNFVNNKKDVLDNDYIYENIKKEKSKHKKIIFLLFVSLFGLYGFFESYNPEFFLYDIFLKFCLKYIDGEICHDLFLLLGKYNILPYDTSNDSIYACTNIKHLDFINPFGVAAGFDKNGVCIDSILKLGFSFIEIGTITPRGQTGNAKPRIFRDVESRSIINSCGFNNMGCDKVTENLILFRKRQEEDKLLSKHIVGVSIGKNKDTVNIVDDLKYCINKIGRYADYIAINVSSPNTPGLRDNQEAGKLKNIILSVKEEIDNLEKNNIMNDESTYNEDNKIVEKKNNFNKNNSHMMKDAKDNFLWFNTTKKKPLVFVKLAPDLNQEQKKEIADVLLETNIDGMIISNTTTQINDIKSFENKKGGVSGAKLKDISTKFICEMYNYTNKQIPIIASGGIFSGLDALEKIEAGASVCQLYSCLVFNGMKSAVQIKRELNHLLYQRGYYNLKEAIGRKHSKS

[1] = tested on: B16-F10 mouse melanoma tumor cells; experiment: B16-F10 syngeneic mouse melanoma model; format: in vivo; details: athymic mice, 35 mg/kg IP 3 × weekly (M, W, F) for two weeks
[2] = Dose-finding study in athymic mice; details: 35 mg/kg three times weekly for 4 weeks

With Nc1nc2c(c(Nc3ccccc3)n1)-c1ccccc1C2 [Compound 1, N^4-Phenyl-9H-indeno[2,1-d]pyrimidine-2,4-diamine] the IC50 (PfDHODH) was ≥ 200 µM.

In the case of Nc1nc2c(c(Nc3cccc(F)c3)n1)-c1ccccc1C2 [Compound 4, N^4-(3-Fluorophenyl)-9H-indeno[2,1-d]pyrimidine-2,4-diamine], the IC50 (PfDHODH) is reported as ≥ 200 µM.

For Nc1nc2c(c(Nc3ccc(Cl)cc3)n1)-c1ccccc1C2 [Compound 7, N^4-(4-Chlorophenyl)-9H-indeno[2,1-d]pyrimidine-2,4-diamine], the IC50 (PfDHODH) was ≥ 200 µM, the “growth rate of primary B16-F10 tumor” value [1] was “equipotent with the standard 21; also recorded: decreased tumor growth rate” and the “loss in weight in dose-finding study” value [2] was “no significant loss in weight”. For the same molecule, the “toxicity in dose-finding study” value [2] was “no apparent toxicity”.

With Nc1nc2c(c(Nc3cccc(Br)c3)n1)-c1ccccc1C2 [Compound 8, N^4-(3-Bromophenyl)-9H-indeno[2,1-d]pyrimidine-2,4-diamine] the IC50 (PfDHODH) was ≥ 200 µM.

With COc1cccc(Nc2nc(N)nc3c2-c2ccccc2C3)c1 [Compound 11, N^4-(3-Methoxyphenyl)-9H-indeno[2,1-d]pyrimidine-2,4-diamine] the IC50 (PfDHODH) was ≥ 200 µM.

With Nc1nc2c(c(Nc3ccc(Cl)cc3F)n1)-c1ccccc1C2 [Compound 13, N^4-(4-Chloro-2-fluorophenyl)-9H-indeno[2,1-d]pyrimidine-2,4-diamine] the IC50 (PfDHODH) was ≥ 200 µM.
